ChEMBL document CHEMBL1909046, “DrugMatrix in vitro pharmacology data”

Tests used:
[1] = biological target: T1, Cysteinyl leukotriene receptor 1 (Homo sapiens, UniProt Q9Y271); format: cell membranes, Membrane; conditions: cho-k1; further: in other assays of this panel Not Active means under 50% inhibition at 10 µM
T1 sequence (Q9Y271 whole entry): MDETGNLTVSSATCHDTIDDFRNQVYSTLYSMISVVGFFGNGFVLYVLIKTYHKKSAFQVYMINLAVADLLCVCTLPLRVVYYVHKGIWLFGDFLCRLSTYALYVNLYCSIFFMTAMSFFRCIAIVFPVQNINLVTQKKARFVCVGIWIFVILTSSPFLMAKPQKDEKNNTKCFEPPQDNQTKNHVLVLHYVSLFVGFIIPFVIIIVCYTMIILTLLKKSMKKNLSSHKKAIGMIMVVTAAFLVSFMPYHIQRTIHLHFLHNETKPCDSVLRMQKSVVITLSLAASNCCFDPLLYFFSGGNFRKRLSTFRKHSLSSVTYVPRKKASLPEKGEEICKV

[2] = biological target: T2, Thromboxane-A synthase (Homo sapiens, UniProt P24557); assay: biochemical; format: tissue-based, Platelet; conditions: platelet;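 further: enzyme inhibition assay with PGH2 supplied as substrate; in other assays of this panel Not Active means under 50% inhibition at 10 µM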
T2 sequence (P24557 whole entry): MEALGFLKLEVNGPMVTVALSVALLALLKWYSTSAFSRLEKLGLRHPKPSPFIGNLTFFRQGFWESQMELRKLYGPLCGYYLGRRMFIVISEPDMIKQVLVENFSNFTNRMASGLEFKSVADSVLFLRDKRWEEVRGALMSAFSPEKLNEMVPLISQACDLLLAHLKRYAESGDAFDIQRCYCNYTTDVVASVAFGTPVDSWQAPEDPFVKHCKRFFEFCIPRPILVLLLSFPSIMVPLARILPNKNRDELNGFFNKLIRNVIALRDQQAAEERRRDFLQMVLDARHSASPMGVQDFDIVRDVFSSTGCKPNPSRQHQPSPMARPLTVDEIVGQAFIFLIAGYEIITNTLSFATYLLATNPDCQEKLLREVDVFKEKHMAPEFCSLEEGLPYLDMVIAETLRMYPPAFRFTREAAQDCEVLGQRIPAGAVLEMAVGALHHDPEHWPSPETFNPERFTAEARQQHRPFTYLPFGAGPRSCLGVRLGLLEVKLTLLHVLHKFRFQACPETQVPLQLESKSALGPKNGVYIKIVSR

[3] = DRUGMATRIX: Phosphodiesterase PDE3 enzyme inhibition (substrate: [3H]cAMP + cAMP); format: tissue-based, Homo sapiens; conditions: platelet; Not Active = under 50% inhibition at 10 µM
[4] = biological target: T3, Receptor-type tyrosine-protein phosphatase C (Homo sapiens, UniProt P08575); design: species or system Escherichia coli;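 further: inhibition of CD45 enzyme activity measured using DiFMUP as substrate; in other assays of this panel Not Active means under 50% inhibition at 10 µM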
T3 sequence (P08575 whole entry): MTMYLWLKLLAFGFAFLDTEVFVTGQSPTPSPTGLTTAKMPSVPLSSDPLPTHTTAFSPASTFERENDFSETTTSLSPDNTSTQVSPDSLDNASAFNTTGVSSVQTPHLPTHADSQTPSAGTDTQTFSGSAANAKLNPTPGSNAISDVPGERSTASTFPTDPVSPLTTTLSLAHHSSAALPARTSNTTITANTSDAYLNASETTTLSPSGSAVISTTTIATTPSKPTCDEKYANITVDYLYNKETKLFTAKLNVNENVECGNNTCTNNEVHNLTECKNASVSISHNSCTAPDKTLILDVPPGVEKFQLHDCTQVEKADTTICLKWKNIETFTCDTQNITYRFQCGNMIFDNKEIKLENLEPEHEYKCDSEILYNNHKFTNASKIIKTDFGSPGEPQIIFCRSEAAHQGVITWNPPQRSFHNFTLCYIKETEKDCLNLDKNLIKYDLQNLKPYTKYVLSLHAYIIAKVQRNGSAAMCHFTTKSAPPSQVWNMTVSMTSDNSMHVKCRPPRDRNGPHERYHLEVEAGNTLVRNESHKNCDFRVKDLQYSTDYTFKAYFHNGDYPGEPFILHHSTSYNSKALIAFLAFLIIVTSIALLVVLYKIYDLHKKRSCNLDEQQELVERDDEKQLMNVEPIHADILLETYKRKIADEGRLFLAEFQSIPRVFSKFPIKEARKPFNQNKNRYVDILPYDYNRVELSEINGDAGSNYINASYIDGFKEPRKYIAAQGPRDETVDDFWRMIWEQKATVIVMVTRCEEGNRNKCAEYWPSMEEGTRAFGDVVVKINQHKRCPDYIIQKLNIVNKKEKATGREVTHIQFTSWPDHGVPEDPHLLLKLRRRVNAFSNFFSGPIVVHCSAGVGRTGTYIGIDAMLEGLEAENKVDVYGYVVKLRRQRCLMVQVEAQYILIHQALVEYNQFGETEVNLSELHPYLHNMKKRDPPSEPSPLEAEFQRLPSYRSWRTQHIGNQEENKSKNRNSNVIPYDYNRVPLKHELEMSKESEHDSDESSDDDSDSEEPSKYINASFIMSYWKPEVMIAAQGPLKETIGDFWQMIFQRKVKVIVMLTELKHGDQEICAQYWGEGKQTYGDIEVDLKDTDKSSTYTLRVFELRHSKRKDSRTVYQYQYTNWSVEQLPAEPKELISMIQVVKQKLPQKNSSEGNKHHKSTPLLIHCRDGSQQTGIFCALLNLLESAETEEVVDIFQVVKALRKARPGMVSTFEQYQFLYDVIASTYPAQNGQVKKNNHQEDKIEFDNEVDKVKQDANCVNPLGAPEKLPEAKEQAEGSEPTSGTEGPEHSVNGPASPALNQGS

[5] = biological target: Beta-1 adrenergic receptor (Homo sapiens, UniProt P08588); assay: DRUGMATRIX: Adrenergic beta1 radioligand binding (ligand: [125I] Cyanopindolol); format: cell membranes, CHO-K1, Membrane; conditions: Not Active = under 50% inhibition at 10 µM
Chain of Beta-1 adrenergic receptor (P08588 whole entry): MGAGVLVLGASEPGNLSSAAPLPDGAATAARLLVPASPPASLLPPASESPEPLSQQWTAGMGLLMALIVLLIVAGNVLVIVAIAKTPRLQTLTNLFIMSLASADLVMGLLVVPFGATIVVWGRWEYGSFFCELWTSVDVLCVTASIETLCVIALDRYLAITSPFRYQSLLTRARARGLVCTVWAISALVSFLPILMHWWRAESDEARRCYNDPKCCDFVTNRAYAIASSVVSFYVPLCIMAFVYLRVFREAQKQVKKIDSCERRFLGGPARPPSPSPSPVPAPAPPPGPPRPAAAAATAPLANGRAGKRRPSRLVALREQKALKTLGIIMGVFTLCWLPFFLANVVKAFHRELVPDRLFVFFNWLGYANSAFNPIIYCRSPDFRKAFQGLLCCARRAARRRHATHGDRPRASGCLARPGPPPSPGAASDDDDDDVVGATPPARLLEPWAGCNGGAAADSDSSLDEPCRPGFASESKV

[6] = biological target: T4, Alpha-1D adrenergic receptor (Homo sapiens, UniProt P25100); format: cell membranes, HEK293, Membrane; further: in other assays of this panel Not Active means under 50% inhibition at 10 µM
T4 sequence (P25100 whole entry): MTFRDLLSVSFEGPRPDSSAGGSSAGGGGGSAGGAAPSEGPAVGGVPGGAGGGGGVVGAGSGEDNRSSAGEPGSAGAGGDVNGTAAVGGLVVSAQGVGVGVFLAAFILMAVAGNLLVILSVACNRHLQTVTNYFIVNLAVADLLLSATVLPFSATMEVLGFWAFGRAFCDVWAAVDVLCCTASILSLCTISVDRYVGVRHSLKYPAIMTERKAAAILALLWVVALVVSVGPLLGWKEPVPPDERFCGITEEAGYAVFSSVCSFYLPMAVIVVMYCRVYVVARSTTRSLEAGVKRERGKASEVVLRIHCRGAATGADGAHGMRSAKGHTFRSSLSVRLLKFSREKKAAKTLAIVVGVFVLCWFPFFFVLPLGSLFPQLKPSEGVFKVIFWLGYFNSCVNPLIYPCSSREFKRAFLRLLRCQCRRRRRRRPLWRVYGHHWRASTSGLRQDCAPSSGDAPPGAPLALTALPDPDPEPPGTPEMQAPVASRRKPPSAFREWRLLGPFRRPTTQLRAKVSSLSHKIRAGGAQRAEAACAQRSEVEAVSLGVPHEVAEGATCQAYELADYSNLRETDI

SMILES	IC50 [1]	IC50 [2]	IC50 [3]	Ki [3]	IC50 [4]	IC50 ([5]; cho-k1)	IC50 ([6]; hek293)	IC50 ([5]; read-out: IC50)	Ki ([5]; read-out: Ki)	IC50 ([6]; read-out: IC50)	Ki ([6]; read-out: Ki)
Nn1nnc2ccccc21	Not Active	Not Active	Not Active	Not Active	Not Active	Not Active	Not Active				
CC[C@]1(O)CC[C@H]2[C@@H]3CCC4=CCCC[C@@H]4[C@H]3CC[C@@]21C	Not Active	Not Active	Not Active	Not Active	Not Active	Not Active	Not Active				
N[C@@H](Cc1ccc(F)cc1)C(=O)O	Not Active	Not Active	Not Active	Not Active	Not Active	Not Active	Not Active				
CCOC(=O)[C@H](CCc1ccccc1)N[C@@H](C)C(=O)N1Cc2ccccc2C[C@H]1C(=O)O	Not Active	Not Active	Not Active	Not Active	Not Active	Not Active	Not Active				
O=C(c1ccccc1Cl)N1CCC(Cc2ccccc2)CC1	Not Active	Not Active	Not Active	Not Active	Not Active	Not Active	Not Active				
CCOC(=O)[C@H](CCc1ccccc1)N[C@@H](C)C(=O)N1CCC[C@H]1C(=O)O	Not Active	Not Active	Not Active	Not Active	Not Active	Not Active	Not Active				
Clc1cc2c(cc1Cl)Oc1cc(Cl)c(Cl)cc1O2 [2,3,7,8-TETRACHLORODIBENZO-P-DIOXIN]	Not Active	Not Active	Not Active	Not Active	Not Active	Not Active	Not Active				
C=C1/C(=C\C=C2/CCC[C@]3(C)[C@@H]([C@H](C)CCCC(C)C)CC[C@@H]23)C[C@@H](O)C[C@@H]1O [ALFACALCIDOL]	Not Active	Not Active	Not Active	Not Active	Not Active	Not Active	Not Active				
CCCCCC[C@H]1C(=O)O[C@H](C)[C@H](NC(=O)c2cccc(NC=O)c2O)C(=O)O[C@@H](C)[C@@H]1OC(=O)CC(C)C [ANTIMYCIN A]	Not Active	Not Active	Not Active	Not Active	Not Active	Not Active	Not Active				
C[C@@H]1CC[C@H]2[C@@H](C)C(=O)O[C@@H]3O[C@@]4(C)CC[C@@H]1[C@]32OO4 [ARTEMISININ]	Not Active	Not Active	Not Active	Not Active	Not Active	Not Active	Not Active				
CO[C@H]1[C@@H](O)[C@H](N)[C@@H](O[C@H]2O[C@H]([C@H](C)N)CC[C@H]2N)[C@H](O)[C@@H]1N(C)C(=O)CN [ASTROMICIN]	Not Active	Not Active	Not Active	Not Active	Not Active	Not Active	Not Active				
[N-]=[N+]=CC(=O)OC[C@H](N)C(=O)O [AZASERINE]	Not Active	Not Active	Not Active	Not Active	Not Active	Not Active	Not Active				
CC[C@H]1OC(=O)[C@H](C)[C@@H](O[C@H]2C[C@@](C)(OC)[C@@H](O)[C@H](C)O2)[C@H](C)[C@@H](O[C@@H]2O[C@H](C)C[C@H](N(C)C)[C@H]2O)[C@](C)(O)C[C@@H](C)CN(C)[C@H](C)[C@@H](O)[C@]1(C)O [AZITHROMYCIN]	Not Active	Not Active	Not Active	Not Active	Not Active	Not Active	Not Active				
CC(C)(C)c1ccc(S(=O)(=O)/C=C/C#N)cc1 [BAY-11-7085]	Not Active	Not Active	Not Active	Not Active	Not Active	Not Active	Not Active				
CCc1oc2ccccc2c1C(=O)c1cc(Br)c(O)c(Br)c1 [BENZBROMARONE]	Not Active	Not Active	Not Active	Not Active	Not Active	Not Active	Not Active				
O=c1cc(-c2ccccc2)oc2ccc3ccccc3c12 [BETA-NAPHTHOFLAVONE]	Not Active	Not Active	Not Active	Not Active	Not Active	Not Active	Not Active				
CC(C)C[C@H]1C(=O)N2CCC[C@H]2[C@]2(O)O[C@](NC(=O)[C@@H]3C=C4c5cccc6[nH]c(Br)c(c56)C[C@H]4N(C)C3)(C(C)C)C(=O)N12 [BROMOCRIPTINE]	Not Active	Not Active	Not Active	Not Active	Not Active			2400 nM	1390 nM	30 nM	15 nM
Cc1cnc(C(=O)NCCc2ccc(S(=O)(=O)NC(=O)NC3CCCCC3)cc2)cn1 [GLIPIZIDE]	Not Active	Not Active	Not Active	Not Active		Not Active	Not Active				
NC[C@H]1O[C@H](O[C@H]2[C@H](O)[C@@H](O[C@H]3O[C@H](CO)[C@@H](O)[C@H](N)[C@H]3O)[C@H](N)C[C@@H]2N)[C@H](O)[C@@H](O)[C@@H]1O [KANAMYCIN]	Not Active	Not Active	Not Active	Not Active	Not Active		Not Active				
